Assay results taken from patent US7772263B2, “Compounds for the treatment of inflammatory disorders” (Schering Corporation, priority 2006, dated 2010).
Where two headings read alike, the source gives them in different places.

Biological target: T1, purified catalytic domain of recombinant human TACE (rhTACEc) (Homo sapiens, UniProt P78536, N452Q/S266A)
T1 construct: rhTACEc, Residue 215 to 477 with two mutation (S266A and N4520) and a 6×His tail; 6xHis (C); made in house; host or cells: baculovirus/Hi5 insect cells
T1 sequence (P78536 215-477 S266A/N452Q limits assumed): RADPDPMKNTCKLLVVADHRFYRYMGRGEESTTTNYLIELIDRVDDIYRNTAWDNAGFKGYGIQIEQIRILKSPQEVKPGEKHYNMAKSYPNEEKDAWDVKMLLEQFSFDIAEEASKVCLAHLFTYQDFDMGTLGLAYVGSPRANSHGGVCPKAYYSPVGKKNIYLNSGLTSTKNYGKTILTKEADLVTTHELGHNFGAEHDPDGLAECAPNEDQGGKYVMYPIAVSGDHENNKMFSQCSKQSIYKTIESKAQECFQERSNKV
Assay: TACE kinetic assay, cleavage of internally quenched fluorescent peptide substrate SPDL-3
Type: biochemical

[1] = TACE inhibition, Table 1001, read-out: Ki Rating
[2] = rhTACEc 70 pM, 30 μM SPDL-3, 90 min pre-incubation at 25° C., read-out: Ki (nM), TACE inhibitory activity

| Ki [1] [nM] | Ki [2] [nM] | SMILES |
| --- | --- | --- |
| < 5 |  | COc1ccc2c(c1)C(=O)N(C[C@@]1(C#Cc3ccc(C(=O)NC4CC4)o3)NC(=O)NC1=O)C2 [Compound 901] |
| < 5 |  | COc1ccc2c(c1)C(=O)N(C[C@@]1(C#Cc3c[nH]c(C)n3)NC(=O)NC1=O)C2 [Compound 902] |
| < 5 |  | COc1ccc2c(c1)C(=O)N(C[C@@]1(C#Cc3ccc4ncsc4c3)NC(=O)NC1=O)C2 [Compound 903] |
| < 5 |  | COc1ccc2c(c1)C(=O)N(C[C@@]1(C#Cc3ccccc3C(C)C)NC(=O)NC1=O)C2 [Compound 904] |
| < 5 |  | O=C1NC(=O)[C@@](C#Cc2ccc(F)cc2F)(CN2Cc3ccc(OC(F)F)cc3C2=O)N1 [Compound 905] |
| < 5 |  | COc1ccc2c(c1)C(=O)N(C[C@@]1(C#Cc3ccc(F)c(C#N)c3)NC(=O)NC1=O)C2 [Compound 906] |
| < 5 |  | COc1ccc2c(c1)C(=O)N(C[C@@]1(C#Cc3ccc(OC)c(F)c3)NC(=O)NC1=O)C2 [Compound 907] |
| < 5 |  | COc1ccc2c(c1)C(=O)N(C[C@@]1(C#Cc3cc(F)cc(F)c3OC)NC(=O)NC1=O)C2 [Compound 908] |
| < 5 |  | COc1ccc2c(c1)C(=O)N(C[C@@]1(C#Cc3ccc(-c4ccccn4)s3)NC(=O)NC1=O)C2 [Compound 909] |
| < 5 |  | COc1ccc2c(c1)C(=O)N(C[C@@]1(C#Cc3nc4ccccc4s3)NC(=O)NC1=O)C2 [Compound 910] |
| < 5 |  | COc1ccc2c(c1)C(=O)N(C[C@@]1(C#Cc3c(C)n[nH]c3C)NC(=O)NC1=O)C2 [Compound 911] |
| < 5 |  | COc1ccc2c(c1)C(=O)N(C[C@@]1(C#Cc3c(N)ccc4scnc34)NC(=O)NC1=O)C2 [Compound 912] |
| < 5 |  | COc1ccc2c(c1)C(=O)N(C[C@@]1(C#Cc3ncnc4c3ncn4C(C)C)NC(=O)NC1=O)C2 [Compound 913] |
| < 5 |  | COc1ccc2c(c1)C(=O)N(C[C@@]1(C#Cc3ncnc4[nH]cnc34)NC(=O)NC1=O)C2 [Compound 914] |
| < 5 |  | COC(=O)c1ccc(C#C[C@]2(CN3Cc4ccc(OC)cc4C3=O)NC(=O)NC2=O)o1 [Compound 915] |
| < 5 |  | COc1ccc2c(c1)C(=O)N(C[C@@]1(C#Cc3ccc(C(N)=O)o3)NC(=O)NC1=O)C2 [Compound 916] |
| < 5 |  | COc1ccc2c(c1)C(=O)N(C[C@@]1(C#Cc3ccc(C(=O)O)o3)NC(=O)NC1=O)C2 [Compound 917] |
| < 5 |  | COc1ccc2c(c1)C(=O)N(C[C@@]1(C#Cc3cnc(C)n3C)NC(=O)NC1=O)C2 [Compound 918] |
| < 5 |  | CCc1cc(C#C[C@]2(CN3Cc4ccc(OC)cc4C3=O)NC(=O)NC2=O)cc2sc(N)nc12 [Compound 919] |
| < 5 |  | COc1ccc2c(c1)C(=O)N(C[C@@]1(C#Cc3cnccc3N)NC(=O)NC1=O)C2 [Compound 920] |
| < 5 |  | O=C1NC(=O)[C@@](C#Cc2cc(F)cc(F)c2)(CN2Cc3ccc(OC(F)F)cc3C2=O)N1 [Compound 922] |
| < 5 |  | COC(=O)c1ncccc1C#C[C@]1(CN2Cc3ccc(OC)cc3C2=O)NC(=O)NC1=O [Compound 924] |
| < 5 |  | COc1ccc2c(c1)C(=O)N(C[C@@]1(C#Cc3cccnc3C(=O)O)NC(=O)NC1=O)C2 [Compound 925] |
| 5 to 25 |  | COc1ccc2c(c1)C(=O)N(C[C@@]1(C#Cc3ccncc3N)NC(=O)NC1=O)C2 [Compound 926] |

| Ki [1] [nM] | Ki [2] [nM] | SMILES |
| --- | --- | --- |
| < 5 |  | COc1ccc2c(c1)C(=O)N(C[C@@]1(C#Cc3ncccc3N)NC(=O)NC1=O)C2 [Compound 928] |
| < 5 | 0.56 | COc1ccc2c(c1)C(=O)N(C[C@@]1(C#Cc3cccnc3N)NC(=O)NC1=O)C2 [Compound 930] |
| < 5 |  | COc1ccc2c(c1)C(=O)N(C[C@@]1(C#Cc3cccc(C(C)C)c3)NC(=O)NC1=O)C2 [Compound 931] |
| < 5 |  | COc1ccc2c(c1)C(=O)N(C[C@@]1(C#Cc3cnc4ncccc4c3)NC(=O)NC1=O)C2 [Compound 932] |
| < 5 |  | COc1ccc2c(c1)C(=O)N(C[C@@]1(C#Cc3ccc4ncccc4c3)NC(=O)NC1=O)C2 [Compound 933] |
| < 5 |  | COc1ccc2c(c1)C(=O)N(C[C@@]1(C#Cc3cc(C(F)(F)F)cc(C(F)(F)F)c3)NC(=O)NC1=O)C2 [Compound 934] |
| < 5 |  | COc1ccc2c(c1)C(=O)N(C[C@@]1(C#Cc3ccc(OC(F)F)cc3)NC(=O)NC1=O)C2 [Compound 937] |
| < 5 |  | COc1ccc2c(c1)C(=O)N(C[C@@]1(C#Cc3cc(F)c(Cl)c(F)c3)NC(=O)NC1=O)C2 [Compound 938] |
| < 5 |  | COc1ccc2c(c1)C(=O)N(C[C@@]1(C#Cc3ccc(C#N)c(F)c3)NC(=O)NC1=O)C2 [Compound 939] |
| < 5 |  | COc1ccc2c(c1)C(=O)N(C[C@@]1(C#Cc3ccc4ccn(C)c4n3)NC(=O)NC1=O)C2 [Compound 940] |
| < 5 |  | COc1ccc2c(c1)C(=O)N(C[C@@]1(C#Cc3cnc4c(ccn4C)c3)NC(=O)NC1=O)C2 [Compound 941] |
| < 5 |  | COc1ccc2c(c1)C(=O)N(C[C@@]1(C#Cc3cnc4nc(O)ccc4c3)NC(=O)NC1=O)C2 [Compound 942] |
| < 5 |  | O=C1NC(=O)[C@@](C#Cc2cccnc2)(CN2Cc3ccc(OC(F)F)cc3C2=O)N1 [Compound 943] |
| < 5 |  | COc1ccc2c(c1)C(=O)N(C[C@@]1(C#Cc3cnc4nc(N)c(C#N)cc4c3)NC(=O)NC1=O)C2 [Compound 944] |
| < 5 |  | COc1ccc2c(c1)C(=O)N(C[C@@]1(C#Cc3cccc(S(N)(=O)=O)c3)NC(=O)NC1=O)C2 [Compound 945] |
| < 5 |  | COc1ccc2c(c1)C(=O)N(C[C@@]1(C#Cc3ccc(S(N)(=O)=O)cc3)NC(=O)NC1=O)C2 [Compound 946] |
| < 5 |  | COc1ccc2c(c1)C(=O)N(C[C@@]1(C#Cc3ccccc3S(N)(=O)=O)NC(=O)NC1=O)C2 [Compound 947] |
| < 5 |  | COc1ccc2c(c1)C(=O)N(C[C@@]1(C#Cc3cn(C)c(C)n3)NC(=O)NC1=O)C2 [Compound 948] |
| < 5 |  | COc1ccc2c(c1)C(=O)N(C[C@@]1(C#Cc3cnc4[nH]ccc4c3)NC(=O)NC1=O)C2 [Compound 949] |
| < 5 |  | COc1ccc2c(c1)C(=O)N(C[C@@]1(C#Cc3cc(OC)cc4sc(N)nc34)NC(=O)NC1=O)C2 [Compound 950] |
| < 5 |  | COc1ccc2c(c1)C(=O)N(C[C@@]1(C#Cc3ccc4nccc(OC)c4c3)NC(=O)NC1=O)C2 [Compound 951] |
| < 5 |  | COc1ccc2c(c1)C(=O)N(C[C@@]1(C#Cc3nccc4cc[nH]c34)NC(=O)NC1=O)C2 [Compound 952] |
| < 5 |  | COc1ccc2c(c1)C(=O)N(C[C@@]1(C#Cc3cncc4cc[nH]c34)NC(=O)NC1=O)C2 [Compound 953] |
| < 5 |  | CNC(=O)c1ccc(C#C[C@]2(CN3Cc4ccc(OC)cc4C3=O)NC(=O)NC2=O)o1 [Compound 954] |

| Ki [1] [nM] | Ki [2] [nM] | SMILES |
| --- | --- | --- |
| < 5 |  | COc1ccc2c(c1)C(=O)N(C[C@@]1(C#Cc3cncc4cccnc34)NC(=O)NC1=O)C2 [Compound 955] |
| < 5 |  | COC(=O)c1ccc2cncc(C#C[C@]3(CN4Cc5ccc(OC)cc5C4=O)NC(=O)NC3=O)c2n1 [Compound 956] |
| < 5 |  | COc1ccc2c(c1)C(=O)N(C[C@@]1(C#Cc3cncc4ccc(C(N)=O)nc34)NC(=O)NC1=O)C2 [Compound 957] |
| < 5 |  | CNC(=O)c1ccc2cncc(C#C[C@]3(CN4Cc5ccc(OC)cc5C4=O)NC(=O)NC3=O)c2n1 [Compound 958] |
| < 5 |  | COc1ccc2c(c1)C(=O)N(C[C@@]1(C#Cc3cncc4ccc(C(=O)O)nc34)NC(=O)NC1=O)C2 [Compound 959] |
| < 5 |  | COc1ccc2c(c1)C(=O)N(C[C@@]1(C#Cc3cnc4[nH]cnc4c3)NC(=O)NC1=O)C2 [Compound 960] |
| < 5 |  | COc1ccc2c(c1)C(=O)N(C[C@@]1(C#Cc3cnc4[nH]c(C)nc4c3)NC(=O)NC1=O)C2 [Compound 961] |
| < 5 |  | COc1ccc2c(c1)C(=O)N(C[C@@]1(C#Cc3cc4nc[nH]c4nc3C)NC(=O)NC1=O)C2 [Compound 962] |
| < 5 |  | COc1ccc2c(c1)C(=O)N(CC1(C#Cc3ccc4ncsc4c3)NC(=O)NC1=O)C2 (centres unmarked) [Compound 963] |
| 5 to 25 |  | COc1ccc2c(c1)C(=O)N(C[C@]1(C#Cc3ccccc3C(C)C)NC(=O)NC1=O)C2 [Compound 964] |
| 25 to 100 |  | COc1ccc2c(c1)C(=O)N(C[C@]1(C#Cc3nc4ccccc4s3)NC(=O)NC1=O)C2 [Compound 965] |
| 25 to 100 |  | COc1ccc2c(c1)C(=O)N(C[C@]1(C#Cc3cnc4ncccc4c3)NC(=O)NC1=O)C2 [Compound 966] |
| 25 to 100 |  | COc1ccc2c(c1)C(=O)N(C[C@]1(C#Cc3cccc(C(C)C)c3)NC(=O)NC1=O)C2 [Compound 967] |
| 25 to 100 |  | COc1ccc2c(c1)C(=O)N(C[C@]1(C#Cc3ccc4ncccc4c3)NC(=O)NC1=O)C2 [Compound 968] |
| < 5 |  | O=C1NC(=O)C(C#Cc2cc(F)cc(F)c2)(CN2Cc3ccc(OC(F)F)cc3C2=O)N1 (centres unmarked) [Compound 969] |
| > 100 |  | O=C1NC(=O)[C@](C#Cc2cc(F)cc(F)c2)(CN2Cc3ccc(OC(F)F)cc3C2=O)N1 [Compound 970] |
| < 5 |  | O=C1NC(=O)C(C#Cc2ccc(F)cc2F)(CN2Cc3ccc(OC(F)F)cc3C2=O)N1 (centres unmarked) [Compound 971] |
|  | 0.12 | COc1ccc2c(c1)C(=O)N(C[C@@]1(C#Cc3ccc4scnc4c3)NC(=O)NC1=O)C2 [Compound 972] |
| < 5 |  | COc1ccc2c(c1)C(=O)N(C[C@@]1(C#Cc3ccc(S(=O)(=O)O)cc3)NC(=O)NC1=O)C2 [Compound 973] |
| < 5 |  | COc1ccc2c(c1)C(=O)N(C[C@@]1(C#Cc3ccccc3)NC(=O)NC1=O)C2 [Compound 1002] |
| < 5 |  | O=C1NC(=O)[C@@](C#Cc2cc(F)cc(F)c2)(CN2Cc3ccc(Cl)cc3C2=O)N1 [Compound 1003B] |
| < 5 |  | O=C1NC(=O)[C@@](C#Cc2cccc(F)c2)(CN2Cc3ccc(Cl)cc3C2=O)N1 [Compound 1003C] |
| < 5 | 0.11 | COc1ccc2c(c1)C(=O)N(C[C@@]1(C#Cc3cccnc3C)NC(=O)NC1=O)C2 [Compound 1003] |
| < 5 |  | O=C1NC(=O)[C@@](C#Cc2cccnc2)(CN2Cc3ccc(Cl)cc3C2=O)N1 [Compound 1004] |
